Experimental data as given in patent publication US9637485B2, “6,7-dihydrobenzo[a]quinolizin-2-one derivatives for the treatment and prophylaxis of hepatitis B virus infection” (Hoffmann-La Roche Inc., priority 2014, dated 2017).
Like-named read-outs stand apart in the source and are kept apart here.

What was measured:
[1] = system: HBsAg; assay: HBsAg assay (CLIA of secreted HBsAg in HepG2.2.15 culture supernatant); assay type: cell-based, HBV
Description: (§1) HepG2.2.15 cells (Acs et al. Proc Natl Acad Sci USA, 84, (1987), 4641-4), a constitutively HBV-expressing cell line were cultured in DMEM+Glutamax-I medium (Invitrogen, Carlsbad, Calif., USA, Catalog number: 11320082), supplemented with 10% fetal bovine serum (Invitrogen, Catalog number: 10099141) and G418 (Invitrogen, Catalog number: 10131027) at a final concentration of 200 mg/L and maintained in 5% CO2 at 37° C.
HepG2.2.15 cells were seeded in duplicate into white, 96-well plates at 1.5×10^4 cells/well. The cells were treated with a three-fold serial dilution series of the compounds in DMSO. The final DMSO concentration in all wells was 1% and DMSO was used as no drug control.
The HBsAg chemiluminescence immunoassay (CLIA) kit (Autobio Diagnostics Co., Zhengzhou, China, Catalog number: CL0310-2) was used to measure the levels of secreted HBV antigens semi-quantitatively. For the detection 50 μL/well culture supernatant was used and HBsAg was quantified using HBsAg chemiluminescence immunoassay (CLIA) kit (Autobio Diagnostics Co., Zhengzhou, China, Catalog number: CL0310-2), 50 μl of the supernatant was transferred to the CLIA assay plate and 50 μL of enzyme conjugate reagent was added into each well. The plates were sealed and gently agitated for 1 hour at room temperature. The supernatant-enzyme-mixture was discarded and wells were washed 6 times with 300 μL of PBS. The residual liquid was removed by plating the CLIA plate right side down on absorbent tissue paper. 25 μL of substrates A and B were added to each well. Luminance was measured using a luminometer (Mithras LB 940 Multimode Microplate Reader) after 10 minutes incubation. Dose-response curves were generated and the IC50 value was extrapolated by using the E-WorkBook Suite (ID Business Solutions Ltd., Guildford, UK). The IC50 was defined as the compound concentration (or conditioned media log dilution) at which HBsAg secretion was reduced by 50% compared to the no drug control.

[2] = system: HBV DNA; assay: HBV DNA assay (real-time qPCR/TaqMan of extracellular HBV DNA, HepG2.2.15 cells); assay type: cell-based; settings: Hepatitis B virus, 144 h, supernatant six days after initial administration, qPCR, read-out: IC50 (Anti HBV DNA production activity)
Description: as §1
The assay employs real-time qPCR (TaqMan) to directly measure extracellular HBV DNA copy number. HepG2.2.15 cells were plated in 96-well microtiter plates. Only the interior wells were utilized to reduce “edge effects” observed during cell culture, the exterior wells were filled with complete medium to help minimize sample evaporation. On the following day, the HepG2.2.15 cells were washed and the medium was replaced with complete medium containing various concentrations of a test compound in triplicate. 3TC was used as the positive control, while media alone was added to cells as a negative control (virus control, VC). Three days later, the culture medium was replaced with fresh medium containing the appropriately diluted drug. […] Antiviral activity was calculated from the reduction in HBV DNA levels (IC50).

[3] = read-out: IC50 (HBsAg secretion reduced by 50% compared to the no drug control), HepG2.2.15 cells, culture supernatant, HBsAg CLIA
[4] = Hepatitis B virus, HepG2.2.15, read-out: IC50 (HBsAg secretion reduced by 50% compared to the no drug control), HepG2.2.15 cells, culture supernatant, HBsAg CLIA

| Structure (SMILES) | IC50 [1, 3] | IC50 [2] | IC50 [1, 4] |
| --- | --- | --- | --- |
| COCCCOc1cc2c(cc1OC)-c1cc(=O)c(C(=O)O)cn1[C@H](C(C)(C)CO)C2 (single isomer, unassigned) [Example 25, (+)-6-(2-Hydroxy-1,1-dimethyl-ethyl)-10-methoxy-9-(3-methoxypropoxy)-2-oxo-6,7-dihydrobenzo[a]quinolizine-3-carboxylic acid] | 2 nM | < 32 nM |  |
| COCCCOc1cc2c(cc1OC)-c1cc(=O)c(C(=O)O)cn1C(C(C)(C)COC)C2 (single isomer, unassigned) [Example 28, (+)-10-Methoxy-6-(2-methoxy-1,1-dimethyl-ethyl)-9-(3-methoxypropoxy)-2-oxo-6,7-dihydrobenzo[a]quinolizine-3-carboxylic acid] | 3 nM | 0.5 nM |  |
| COCCCOc1cc2c(cc1OC)-c1cc(=O)c(C(=O)O)cn1C(COC)C2 (stereo not shown) [Example 18, 10-Methoxy-6-(methoxymethyl)-9-(3-methoxypropoxy)-2-oxo-6,7-dihydrobenzo[a]quinolizine-3-carboxylic acid] |  |  | 75 nM |
| COCCCOc1cc2c(cc1Cl)-c1cc(=O)c(C(=O)O)cn1C(C1CCOCC1)C2 (stereo not shown) [Example 19, 10-Chloro-9-(3-methoxypropoxy)-2-oxo-6-tetrahydropyran-4-yl-6,7-dihydrobenzo[a]quinolizine-3-carboxylic acid] |  |  | 88 nM |
| COCCCOc1cc2c(cc1OC)-c1cc(=O)c(C(=O)O)cn1C(C(C)(C)COCc1ccccc1)C2 (stereo not shown) [Example 23, 6-(2-Benzyloxy-1,1-dimethyl-ethyl)-10-methoxy-9-(3-methoxypropoxy)-2-oxo-6,7-dihydrobenzo[a]quinolizine-3-carboxylic acid] |  |  | 18 nM |
| COCCOc1cc2c(cc1Cl)-c1cc(=O)c(C(=O)O)cn1C(CSC)C2 (stereo not shown) [Example 33, 10-Chloro-9-(2-methoxyethoxy)-6-(methylsulfanylmethyl)-2-oxo-6,7-dihydrobenzo[a]quinolizine-3-carboxylic acid] |  |  | 117 nM |
| COCCOc1cc2c(cc1Cl)-c1cc(=O)c(C(=O)O)cn1C(CS(C)(=O)=O)C2 (stereo not shown) [Example 34, 10-Chloro-9-(2-methoxyethoxy)-6-(methylsulfonylmethyl)-2-oxo-6,7-dihydrobenzo[a]quinolizine-3-carboxylic acid] |  |  | 3380 nM |
| CCOc1cc2c(cc1OCC)-c1cc(=O)c(C(=O)O)cn1C(CO)C2 (stereo not shown) [Example 35, 9,10-Diethoxy-6-(hydroxymethyl)-2-oxo-6,7-dihydrobenzo[a]quinolizine-3-carboxylic acid] |  |  | 868 nM |
| CCOc1cc2c(cc1OCC)-c1cc(=O)c(C(=O)O)cn1C(COC(C)=O)C2 (stereo not shown) [Example 36, 6-(Acetoxymethyl)-9,10-diethoxy-2-oxo-6,7-dihydrobenzo[a]quinolizine-3-carboxylic acid] |  |  | 254 nM |
| CCOc1cc2c(cc1OCC)-c1cc(=O)c(C(=O)O)cn1C(CN)C2 (stereo not shown) [Example 37, 6-(Aminomethyl)-9,10-diethoxy-2-oxo-6,7-dihydrobenzo[a]quinolizine-3-carboxylic acid] |  |  | 1540 nM |
| CCOc1cc2c(cc1OCC)-c1cc(=O)c(C(=O)O)cn1C(CNS(C)(=O)=O)C2 (stereo not shown) [Example 38, 9,10-Diethoxy-6-(methanesulfonamidomethyl)-2-oxo-6,7-dihydrobenzo[a]quinolizine-3-carboxylic acid] |  |  | 33300 nM |
| CCOc1cc2c(cc1OCC)-c1cc(=O)c(C(=O)O)cn1C(CNC(=O)c1ccccc1)C2 (stereo not shown) [Example 39, 6-(Benzamidomethyl)-9,10-diethoxy-2-oxo-6,7-dihydrobenzo[a]quinolizine-3-carboxylic acid] |  |  | 19800 nM |
| CCOc1cc2c(cc1OCC)-c1cc(=O)c(C(=O)O)cn1C(CN1CCCC1=O)C2 (stereo not shown) [Example 40, 9,10-Diethoxy-2-oxo-6-[(2-oxopyrrolidin-1-yl)methyl]-6,7-dihydrobenzo[a]quinolizine-3-carboxylic acid] |  |  | 7450 nM |
| CCOc1cc2c(cc1OCC)-c1cc(=O)c(C(=O)O)cn1C(CN(C)C(C)=O)C2 (stereo not shown) [Example 41, 6-[[Acetyl(methyl)amino]methyl]-9,10-diethoxy-2-oxo-6,7-dihydrobenzo[a]quinolizine-3-carboxylic acid] |  |  | 4860 nM |
| CCOc1cc2c(cc1OCC)-c1cc(=O)c(C(=O)O)cn1C(CN1CCCC1)C2 (stereo not shown) [Example 42, 9,10-Diethoxy-2-oxo-6-(pyrrolidin-1-ylmethyl)-6,7-dihydrobenzo[a]quinolizine-3-carboxylic acid] |  |  | 216 nM |
| CCOc1cc2c(cc1OCC)-c1cc(=O)c(C(=O)O)cn1C(CN(C)C)C2 (stereo not shown) [Example 43, 6-[(Dimethylamino)methyl]-9,10-diethoxy-2-oxo-6,7-dihydrobenzo[a]quinolizine-3-carboxylic acid] |  |  | 134 nM |
| COCC(C)(C)C1Cc2cc(OCCCn3cccn3)c(OC)cc2-c2cc(=O)c(C(=O)O)cn21 (stereo not shown) [Example 44, 10-Methoxy-6-(2-methoxy-1,1-dimethyl-ethyl)-2-oxo-9-(3-pyrazol-1-ylpropoxy)-6,7-dihydrobenzo[a]quinolizine-3-carboxylic acid] |  |  | 190 nM |
| CCc1cc2c(cc1OC)-c1cc(=O)c(C(=O)O)cn1C(C(C)(C)COC)C2 (stereo not shown) [Example 45, 9-Ethyl-10-methoxy-6-(2-methoxy-1,1-dimethyl-ethyl)-2-oxo-6,7-dihydrobenzo[a]quinolizine-3-carboxylic acid] |  |  | 74 nM |
| COCC(C)(C)C1Cc2cc(N3CCCC3)c(OC)cc2-c2cc(=O)c(C(=O)O)cn21 (stereo not shown) [Example 46, 10-Methoxy-6-(2-methoxy-1,1-dimethyl-ethyl)-2-oxo-9-pyrrolidin-1-yl-6,7-dihydrobenzo[a]quinolizine-3-carboxylic acid] |  |  | 9 nM |
| COCC(C)(C)C1Cc2cc(C#N)c(OC)cc2-c2cc(=O)c(C(=O)O)cn21 (stereo not shown) [Example 47, 9-Cyano-10-methoxy-6-(2-methoxy-1,1-dimethyl-ethyl)-2-oxo-6,7-dihydrobenzo[a]quinolizine-3-carboxylic acid] |  |  | 230 nM |
